The values below come from PMC11644009 (Molecules, 2024).

The test system of assay [1] is influenza virus A/Vladivostok/2/09 (H1N1). Kind of assay: Virus inhibitory activity on chicken embryo model (chemical therapeutic index). Format: in vivo. The conditions noted are these: samples 0.0016%–0.2% (0.003–0.4 mg per chicken embryo), Rimantadine 10 µg/mL, Tamiflu 6 µg/mL. As for the experimental part: Rimantadine® (Olainfarm, Olaine, Latvia), alpha-methyltricyclo[3.3.1.1/.7]decan-1-methanamine (in the form of hydrochloride)) was used as a comparison drug at a dose of 10 µg /mL and Tamiflu® (Oseltamivir, Hoffmann-La Roche, Basel, Switzerland, (3R,4R,5S)-4-acetylamino-5-amino-3-(1-ethylpropoxy)-1-cyclohexene-1-carboxylic acid ethyl […], phosphate)) at a dose of 6 µg /mL.
To determine the chemical therapeutic index (CTI), the virus inhibitory activity of samples was studied at concentrations from 0.0016% to 0.2%, which corresponded to doses of 0.003–0.4 mg per chicken embryo (0.06–8 mg/kg) (Table 2).

Assay [2] has the same test system. Format: in vivo. The conditions noted are these: compound 0.2%, 0.4 mg/ch.e. (8 mg/kg).
Assay [3] concerns neuraminidase activity of influenza virus A/Vladivostok/2/09 (H1N1). As to the kind of experiment: Effect on neuraminidase activity (fluorescent kit). Format: biochemical. The conditions noted are these: maximum dose 1 mg/100 μL. As for the experimental part: To determine the effect of lupinine derivatives 1–5 on neuraminidase activity, the maximum dose of 1 mg/100 μL was used. It was established (Figure 3) that compounds 4 and 5 were able to alter the neuraminidase activity of influenza viruses. It was shown that these two triazole-containing lupinines suppressed neuraminidase activity by no more than 40%.
The determination of the neuraminidase activity of the studied samples was carried out using a fluorescent kit in accordance with the manufacturer’s recommendations (AbCam, Cambridge, UK). The non-fluorescent neuraminidase substrate becomes highly fluorescent when cleaved by neuraminidase. The signal is easily read by fluorescence at Ex/Em = ~320/~450 nm.
Figure 3 The influence of the studied samples on neuraminidase activity.

Assay [4] has as its system hemagglutinating activity of influenza A/Vladivostok/2/09 (H1N1) virus. As to the kind of experiment: Effect on hemagglutinating activity of influenza virus. The note with it: maximum dose 1 mg/100 μL.
Protocol: The hemagglutinating activity of viruses was determined according to the standard method [53] using a 0.75% suspension of chicken erythrocytes. When determining the effect of the studied sample on hemagglutinating properties, the sample in different doses was mixed with the virus, and after 30 min of incubation at 37 °C, the hemagglutinating activity was determined using the standard method.

Bounds are passed on as bounds.

On to `CC(N)C12CC3CC(CC(C3)C1)C2` (stereo not drawn) [Rimantadine, alpha-methyltricyclo[3.3.1.1/.7]decan-1-methanamine, reference compound], for which the “Chemical Therapeutic Index of the Studied Sample” value (from here on “Chemical Therapeutic Index”) in assay [1] was 30.

Consider `c1ccc(-c2cn(C[C@@H]3CCCN4CCCC[C@H]34)nn2)cc1` [Compound 3, (1S,9aR)-1-[(4-Phenyl-1H-1,2,3-triazol-1-yl)methyl]octahydro-2H-quinolizine], for which the “Decrease in Influenza Virus Infectivity Titer, lg” value in assay [2] is 0.0 lg. In addition, the “Chemical Therapeutic Index” value in assay [1] came to 8.1.

Take `COc1ccc(-c2cn(C[C@@H]3CCCN4CCCC[C@H]34)nn2)cc1` [Compound 1, (1S,9aR)-1-{[4-(4-Methoxyphenyl)-1H-1,2,3-triazol-1-yl]methyl}octahydro-2H-quinolizine]: the “Chemical Therapeutic Index” value in assay [1] came out at 64.0.

With `CCc1cc(C(=O)OCc2cn(C[C@@H]3CCCN4CCCC[C@H]34)nn2)c(O)c(C(C)(C)C)c1` [Compound 5, {1-[((1S,9aR)-Octahydro-2H-quinolizin-1-yl)methyl]-1H-1,2,3-triazol-4-yl}methyl-3-tert-butyl-2-hydroxy-5-ethylbenzoate], the “Suppression of neuraminidase activity” value in assay [3] was “no more than 40%”. In addition, the “Chemical Therapeutic Index” value in assay [1] is on record as >100.0. In assay [4], the “Suppression of hemagglutinating activity” value was “no less than 25%”.

For the molecule `Cc1cccc(-c2cn(C[C@@H]3CCCN4CCCC[C@H]34)nn2)c1` [Compound 2, (1S,9aR)-1-{[4-(m-Tolyl)-1H-1,2,3-triazol-1-yl]methyl}octahydro-2H-quinolizine], the “Decrease in Influenza Virus Infectivity Titer, lg” value in assay [2] was determined as 0.8 lg. For the same molecule, in assay [1], the “Chemical Therapeutic Index” value came out at 57.0.

Take `CCOC(=O)C1=C[C@@H](OC(CC)CC)[C@H](NC(C)=O)[C@@H](N)C1` [Tamiflu, (3R,4R,5S)-4-acetylamino-5-amino-3-(1-ethylpropoxy)-1-cyclohexene-1-carboxylic acid ethyl ether, phosphate, reference compound]: the “Chemical Therapeutic Index” value in assay [1] was determined as 11.0.

Regarding `O=Cc1ccc(OCc2cn(C[C@@H]3CCCN4CCCC[C@H]34)nn2)cc1` [Compound 4, 4-({1-[((1S,9aR)-Octahydro-2H-quinolizin-1-yl)methyl]-1H-1,2,3-triazol-4-yl}methoxy)benzaldehyde], in assay [3], the “Suppression of neuraminidase activity” value is on record as “no more than 40%”. For the same molecule, the “Chemical Therapeutic Index” value in assay [1] is on record as 40.0.
